Structures can show the parent of a compound that is named as a salt. Where two headings read alike, the source gives them in different places.
How the values were obtained:
[1] = tested on: promyelocytic cell line HL-60; assay: Inhibition of cell proliferation, tritiated thymidine incorporation, cells (ii); format: cell-based; conditions: for inhibition at 500 µM: Homo sapiens
Method: (§1) The compound of the invention prepared in Example I gave the results indicated in paragraphs (a), (b) and (c), below, when tested on: (i) leukemic cells from six myeloid leukemic patients, and (ii) promyelocytic cell line HL-60.
(b) Inhibition of cell proliferation. This was evaluated by inhibition of tritiated thymidine incorporation. The results in the following table are self-explanatory:
In a further experiment, cells (ii) were incubated with the compound of Example I or with sodium butyrate. After a period of time as specified in the following table, the agents were removed by washing the cells, and thymidine incorporation was measured 15 hours after the end of incubation.

[2] = tested on: leukemic cells from six myeloid leukemic patients and promyelocytic cell line HL-60 (which one is not stated); assay: Induction of cytodifferentiation, reduction of nitro blue tetrazolium (NBT); format: cell-based; conditions: 0.15 mM
Method: (c) Induction of cytodifferentiation. This was evaluated by reduction of nitro blue tetrazolium (NBT), which is indicative of functional maturity of leucocytes.

[3] = tested on: leukemic cells from six myeloid leukemic patients; assay: Cytotoxicity, viability of cells 60 hours after exposure, Trypan Blue exclusion, cells (i); format: cell-based; conditions: Homo sapiens, read-out: Concentration which resulted in 50% inhibition (LD50), viability
Method: as §1
(§2) (a) Cytotoxicity. The viability of the cells 60 hours after exposure was determined by Trypan Blue exclusion.

[4] = tested on: promyelocytic cell line HL-60; assay: Cytotoxicity, viability of cells 60 hours after exposure, Trypan Blue exclusion, cells (ii); format: cell-based; conditions: Homo sapiens, read-out: Concentration which resulted in 50% inhibition (LD50), viability
Method: as §1, §2

[5] = tested on: leukemic cells from six myeloid leukemic patients; assay: Inhibition of cell proliferation, tritiated thymidine incorporation, cells (i); format: cell-based, human
Method: as §1
(b) Inhibition of cell proliferation. This was evaluated by inhibition of tritiated thymidine incorporation. The results in the following table are self-explanatory: […]

[6] = tested on: leukemic cells isolated from myelogenous leukemic patients
[7] = tested on: acute myelogenous leukemia; conditions: human, in vivo
variety of tumor cells = conditions: induction of morphological and biochemical changes; cited from earlier work
neuroblastoma = conditions: doses of up to 10 g./day; cited from earlier work
[8] = tested on: refractory acute myelogenous leukemia; conditions: 0.5 g./kg./day; cited from earlier work
[9] = cited from earlier work
[10] = in vivo; cited from earlier work
[11] = cited from earlier work; remark: listed apart in the source
[12] = tested on: colony forming units, granulocytes and macrophages (CFU-GM); conditions: CFU-GM in soft agar; normal bone marrow and peripheral blood of leukemic patients; unpublished work; cited from earlier work
B16 Melanoma [13] = assay: In vivo efficacy, 3B131 intraperitoneally implanted B16 Melanoma; parameters: species or system mouse; conditions: i.p., 1-9 days, daily
Lewis Lung Carcinoma = assay: In vivo efficacy, 3LL32 subcutaneously implanted Lewis Lung Carcinoma; parameters: species or system mouse; conditions: i.p.
Method: (§3) Moreover, the in vivo efficacy of the compound of the invention prepared in Example I was tested according to protocols adopted from the "Developmental Therapeutics Program, Division of Cancer Treatment, National Cancer Institute", NIH Publication 84-2635, using the following animal models: (1) 3B131 Intraperitoneally (i.p.) implanted B16 Melanoma; (2) 3B132 Subcutaneously (s.c.) implanted B16 Melanoma: and (3) 3LL32 Subcutaneously (s.c.) implanted Lewis Lung Carcinoma. Results according to the following table were obtained.

[14] = Activity of hydrolysis product under conditions in which the parent compound was active; conditions: conditions in which the parent compound (Example I) was active
From the text: It is postulated that the butyrate esters provided by the invention undergo intracellular hydrolysis to butyric acid; the residual fragments of the hydrolysis would be non-toxic. […] An alternative metabolic route may involve (where appropriate) the oxidation of butyrates to hydroxy-butyrates and/or oxo-butyrates.

human lymphocytes = assay: Colony stimulating factors (CSF) production by human lymphocytes, CFU-GM from BALB/c mouse bone marrow; format: cell-based; conditions: for CSF production, # CFU-GM / CSF production, %: 72 hours incubation; for CSF production, %: PHA = 100
Method: (§4) CSF activity was assayed by the ability of the supernatants from these cultures to support development on semisolid agar of CFU-GM (colony forming units--granulocytes and macrophages) from bone marrow cells of BALB/c mice.

mouse spleen cells = assay: Colony stimulating factors (CSF) production by murine splenocytes, CFU-GM from BALB/c mouse bone marrow; format: cell-based; conditions: for CSF production, %: ConA = 100
Method: as §4

B16 Melanoma [15] = assay: In vivo efficacy, 3B132 subcutaneously implanted B16 Melanoma; conditions: 125 mg./kg./mouse, i.p.; 1-6 days, daily
Method: as §3

[16] = Therapeutic index (LD50/ED50), standard procedures; conditions: in vivo
[17] = Experiment 1, 20 μM, 24 hours incubation

CCCC(=O)[O-].[Na+] [sodium butyrate, reference compound]
inhibition at 500 µM ([1]; HL-60, read-out: % inhibition of tritiated thymidine incorporation, 0.5 mM, incubation 0.5 hours, washed, measured 15 hours after end of incubation): 0%
inhibition at 500 µM ([1]; HL-60, read-out: % inhibition of tritiated thymidine incorporation, 0.5 mM, incubation 3.0 hours, washed, measured 15 hours after end of incubation): 0%
inhibition at 500 µM ([1]; HL-60, read-out: % inhibition of tritiated thymidine incorporation, 0.5 mM, incubation 16.0 hours, washed, measured 15 hours after end of incubation): 0%
inhibition at 500 µM ([1]; HL-60, read-out: % inhibition of tritiated thymidine incorporation, 0.5 mM, incubation 24.0 hours, washed, measured 15 hours after end of incubation): 22%
inhibition at 500 µM ([1]; HL-60, read-out: % inhibition of tritiated thymidine incorporation, 0.5 mM, incubation 48.0 hours, washed, measured 15 hours after end of incubation): 50%
inhibition at 500 µM ([1]; HL-60, read-out: % inhibition of tritiated thymidine incorporation, 0.5 mM, incubation 62.0 hours, washed, measured 15 hours after end of incubation): 94%
NBT reduction (% of positive cells) ([2]; incubation 24 hours): 11 % of positive cells
NBT reduction (% of positive cells) ([2]; incubation 48 hours): 29 % of positive cells
NBT reduction (% of positive cells) ([2]; incubation 72 hours): 48 % of positive cells
NBT reduction (% of positive cells) ([2]; incubation 96 hours): 66 % of positive cells

CCCC(=O)O [butyric acid/salts, butyric acid]
IC50 [3]: 1000 µM
IC50 [4]: 400 µM
inhibition of tritiated thymidine incorporation (in words) ([5]; 24 hours, up to 2 mM): no inhibition
inhibition of tritiated thymidine incorporation (in words) ([1]; cells (ii), 24 hours, up to 1 mM): no inhibition
cytotoxic and cytodifferentiating potency (in words) [6]: the most potent cytotoxic and cytodifferentiating agent
adverse reaction (in words) [7]: no adverse reaction
anti-tumor activity (in words) (variety of tumor cells): anti-tumor activity
toxicity (in words) (neuroblastoma): no clinically detectable toxicity
remission (in words) [8]: partial and temporary remission
toxic effects (in words) [8]: without detectable toxic effects
induction period ([9]; in vitro): 48 h
induction period ([9]; in vivo): 96 to 120 h
clearance (in words) [10]: high clearance
metabolization (in words) [10]: rapid metabolization
toxicity (in words) ([11]; high dosages): no toxicity
fluid overload and alkalosis (in words) ([11]; human, in vivo): fluid overload and mild alkalosis may occur
selectivity (in words) [12]: selectivity of butyric acid/salts was demonstrated

N.N.[Cl][Pt][Cl] [cisplatin, reference compound]
ILS (increased life span compared to untreated animals) (B16 Melanoma [13]; 1.5 mg./kg./mouse): 164%

O=P1(N(CCCl)CCCl)NCCCO1 (stereo not shown) [cytoxan, reference compound]
ILS (increased life span compared to untreated animals) (Lewis Lung Carcinoma; 100 mg./kg./mouse, day 1 only): 152%

CC(C)(C)C(=O)O [pivalic acid]
activity (in words) [14]: shows no activity

CCCC(=O)OCOC(=O)C(C)(C)C [Example I, Pivaloyloxymethyl butyrate]
IC50 [3]: 150 µM
IC50 [4]: 100 µM
inhibition at 100 µM ([5]; Homo sapiens, 0.1 mM, 15 hrs. exposure): 88%
inhibition at 200 µM ([5]; Homo sapiens, 0.2 mM, 15 hrs. exposure): 99%
inhibition at 500 µM ([1]; HL-60, 0.5 mM, incubation 0.5 hours, washed, measured 15 hours after end of incubation, read-out: % inhibition of tritiated thymidine incorporation): 52%
inhibition at 500 µM ([1]; HL-60, 0.5 mM, incubation 3.0 hours, washed, measured 15 hours after end of incubation, read-out: % inhibition of tritiated thymidine incorporation): 92%
inhibition at 500 µM ([1]; HL-60, 0.5 mM, incubation 16.0 hours, washed, measured 15 hours after end of incubation, read-out: % inhibition of tritiated thymidine incorporation): 99%
inhibition at 500 µM ([1]; HL-60, 0.5 mM, incubation 24.0 hours, washed, measured 15 hours after end of incubation, read-out: % inhibition of tritiated thymidine incorporation): 99%
inhibition at 500 µM ([1]; HL-60, 0.5 mM, incubation 48.0 hours, washed, measured 15 hours after end of incubation, read-out: % inhibition of tritiated thymidine incorporation): 99%
inhibition at 500 µM ([1]; HL-60, 0.5 mM, incubation 62.0 hours, washed, measured 15 hours after end of incubation, read-out: % inhibition of tritiated thymidine incorporation): 99%
inhibition at 500 µM ([1]; HL-60, 0.5 h, cells (ii), 0.5 mM, 0.5 hr. exposure, read-out: % inhibition of tritiated thymidine incorporation): 52%
inhibition at 500 µM ([1]; HL-60, 15 h, cells (ii), 0.5 mM, 15 hrs. exposure, read-out: % inhibition of tritiated thymidine incorporation): 99%
NBT reduction (% of positive cells) ([2]; incubation 24 hours): 24 % of positive cells
NBT reduction (% of positive cells) ([2]; incubation 48 hours): 49 % of positive cells
NBT reduction (% of positive cells) ([2]; incubation 72 hours): 66 % of positive cells
NBT reduction (% of positive cells) ([2]; incubation 96 hours): 77 % of positive cells
CSF production, # CFU-GM (human lymphocytes; Experiment 1, 20 μM): 10 # CFU-GM
CSF production, % (human lymphocytes; Experiment 1, 20 μM): 33%
CSF production, # CFU-GM (human lymphocytes; Experiment 1, 50 μM): 3 # CFU-GM
CSF production, % (human lymphocytes; Experiment 1, 50 μM): 10%
CSF production, # CFU-GM (human lymphocytes; Experiment 2, 20 μM): 43 # CFU-GM
CSF production, % (human lymphocytes; Experiment 2, 20 μM): 105%
CSF production, # CFU-GM (human lymphocytes; Experiment 2, 50 μM): 16 # CFU-GM
CSF production, % (human lymphocytes; Experiment 2, 50 μM): 39%
CSF production (in words) (human lymphocytes; human lymphocytes): stimulates CSF production
CSF production, # CFU-GM (mouse spleen cells; [17]): 11 # CFU-GM
CSF production, % (mouse spleen cells; [17]): 10%
CSF production, % (mouse spleen cells; Experiment 1, 50 μM, 24 hours incubation): 0%
CSF production (in words) (mouse spleen cells; murine lymphocytes): stimulates CSF production
ILS (increased life span compared to untreated animals) (B16 Melanoma [13]; 250 mg./kg./mouse): 154%
ILS (increased life span compared to untreated animals) (B16 Melanoma [15]): 150%
ILS (increased life span compared to untreated animals) (Lewis Lung Carcinoma; 125 mg./kg./mouse, 1-6 days, daily): 152%
ILS (increased life span compared to untreated animals) (Lewis Lung Carcinoma; 125 mg./kg./mouse, 1-18 days, every odd day): 186%
selectivity ratio [16]: 15 to 20

— US5200553A, “Biologically active carboxylic acid esters” (Kupat Holim Health Insurance Institution of the General …, priority 1987, dated 1993)
